According to patent US20090098189A1, “AZAINDOLES AS INHIBITORS OF SOLUBLE ADENYLATE CYCLASE” (priority 2007, published 2009):

Tests used:
[1] = target: soluble, sperm-specific adenylate cyclase (sAC) (Homo sapiens, UniProt Q96PN6); experiment: sAC assay (HTRF cAMP detection); format: biochemical; conditions: read-out: IC50 (inhibition of soluble adenylate cyclase)
From the text: In a suitable buffer system, soluble, sperm-specific adenylate cyclase catalyzes the conversion of adenosine triphosphate (ATP) to cyclic adenosine monophosphate (cAMP) and pyrophosphate. Free cAMP generated in this way is then used in a competitive detection technique, in which the binding of a europium cryptate Eu[K]-labeled anti-cAMP antibody (anti-cAMP-Eu[K]-AB) to a modified allophycocyanine-1 molecule labeled with cAMP molecules (cAMP-XL665) is prevented. In the absence of exogenous cAMP, after excitation at 335 nm there is Fluorescence Resonance Energy Transfer (FRET) between the anti-cAMP-Eu[K]-AB (FRET donor) and the cAMP-XL665 molecule (FRET acceptor). This process is quantified, time-resolved, on the basis of the emission of the FRET acceptor XL665 (665 nm and 620 nm). A decrease in signal (measured as Well Ratio; calculated from the Formula: [(E665 nm/E620 nm)×10000]) can be attributed to the presence of cAMP and thus to the activity of sAC. First, 1.5 μl of the test substance (in 30% DMSO) is placed in each well of a 384-well test plate (polystyrene; 384, NV), and in the solvent controls only 30% DMSO. Then 10 μl of a dilute sAC enzyme solution is applied (enzyme stock solution in 300 mM NaCl, 10% glycerol; pH 7.6; enzyme intermediate and final dilution a) 1:10 and b) 1:2000 in each case in: 1.0 mM MnCl2; 0.2% BSA; 50 mM Tris pH 7.5 in H2O). The enzyme reaction is started by adding 5 μl of the ATP substrate solution (200 μM ATP in H2O) and after incubation (25 min at room temperature) stopped by adding 5 μl of the stop solution (200 μM EDTA in PBS). Finally the whole reaction is adjusted to a total volume of 91.5 μl by adding 70 μl PBS.
Next, 8 μl of detection solution 1 is placed in a well of the 384-well measuring plate (measuring plate: polystyrene; 384, SV—black; detection solution 1: 50 μl cAMP-XL665; 950 μl reconstituted buffer; 2200 μl PBS; cAMP-XL665: prepared by adding 5 ml H2O to the lyophilized product according to the instructions in Cis bio Kit: #62AMPPEC; storage: in aliquots at −80° C.). Next, 3 μl from the 91.5 μl is added to the corresponding well of the test plate. Finally, 8 μl of detection solution 2 is added (detection solution 2: 50 μl anti-cAMP-Eu[K]-AB; 950 μl reconstituted buffer; 2200 μl PBS; anti-cAMP-Eu[K]-AB: prepared according to the instructions in Cis bio Kit: #62AMPPEC; storage: in aliquots at −80° C.).
After further incubation for 90 min at room temperature, the HTRF result is measured either on the Packard Discovery or with the RubiStar HTRF measuring instrument (delay: 50 μs; integration time: 400 μs).

[2] = known from the literature; cited from earlier work

Sequence of soluble, sperm-specific adenylate cyclase (sAC) (Q96PN6 whole entry): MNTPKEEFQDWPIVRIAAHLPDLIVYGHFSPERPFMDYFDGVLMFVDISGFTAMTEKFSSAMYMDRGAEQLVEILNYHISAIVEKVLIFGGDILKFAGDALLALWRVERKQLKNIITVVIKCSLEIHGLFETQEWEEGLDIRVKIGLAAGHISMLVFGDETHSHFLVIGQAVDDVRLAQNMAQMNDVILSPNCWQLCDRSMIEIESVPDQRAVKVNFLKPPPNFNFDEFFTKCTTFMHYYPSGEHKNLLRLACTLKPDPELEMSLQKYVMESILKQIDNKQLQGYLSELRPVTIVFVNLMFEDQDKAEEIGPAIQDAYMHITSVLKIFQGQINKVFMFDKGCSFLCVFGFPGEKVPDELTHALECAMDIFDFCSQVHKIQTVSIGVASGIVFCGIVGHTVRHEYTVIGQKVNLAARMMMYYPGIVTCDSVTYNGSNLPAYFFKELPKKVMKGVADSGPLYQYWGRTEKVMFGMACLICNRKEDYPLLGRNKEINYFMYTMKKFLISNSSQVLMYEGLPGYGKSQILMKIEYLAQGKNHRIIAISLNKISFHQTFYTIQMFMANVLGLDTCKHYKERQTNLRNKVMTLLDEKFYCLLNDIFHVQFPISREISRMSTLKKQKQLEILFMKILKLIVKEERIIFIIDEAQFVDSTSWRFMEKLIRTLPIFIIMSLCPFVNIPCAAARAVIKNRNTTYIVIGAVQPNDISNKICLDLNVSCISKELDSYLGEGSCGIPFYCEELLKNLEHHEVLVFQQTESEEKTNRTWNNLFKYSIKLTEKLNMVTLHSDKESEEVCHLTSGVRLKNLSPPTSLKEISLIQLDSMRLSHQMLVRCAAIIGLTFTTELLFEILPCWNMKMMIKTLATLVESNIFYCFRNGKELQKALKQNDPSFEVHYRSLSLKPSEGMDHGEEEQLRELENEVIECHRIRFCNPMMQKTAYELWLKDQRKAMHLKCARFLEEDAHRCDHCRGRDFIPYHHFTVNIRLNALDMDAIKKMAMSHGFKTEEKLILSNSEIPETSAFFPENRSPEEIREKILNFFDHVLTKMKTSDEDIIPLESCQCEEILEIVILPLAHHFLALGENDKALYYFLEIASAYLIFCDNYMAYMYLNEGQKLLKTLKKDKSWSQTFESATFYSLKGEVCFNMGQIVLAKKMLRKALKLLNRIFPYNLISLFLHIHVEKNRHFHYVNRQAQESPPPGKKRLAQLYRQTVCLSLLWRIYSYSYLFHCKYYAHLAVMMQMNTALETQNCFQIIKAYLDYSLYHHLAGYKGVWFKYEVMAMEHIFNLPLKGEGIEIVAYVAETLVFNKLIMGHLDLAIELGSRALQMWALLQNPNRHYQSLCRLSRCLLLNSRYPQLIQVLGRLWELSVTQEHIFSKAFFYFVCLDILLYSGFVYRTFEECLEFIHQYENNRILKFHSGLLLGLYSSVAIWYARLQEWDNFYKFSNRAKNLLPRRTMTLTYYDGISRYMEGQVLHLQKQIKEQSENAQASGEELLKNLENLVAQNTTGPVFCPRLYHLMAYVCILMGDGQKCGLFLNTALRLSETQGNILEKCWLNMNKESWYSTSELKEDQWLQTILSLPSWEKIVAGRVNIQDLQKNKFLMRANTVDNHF

| SMILES | IC50 [1] [µM] | toxicity [2] |
| --- | --- | --- |
| CC(CO)NC(=O)c1[nH]c2ncc(NS(=O)(=O)c3ccc(C(C)(C)C)cc3)cc2c1-c1ccccc1 (racemic) [Example 6, (±)-N-(2-Hydroxy-1-methylethyl)-5-(4-tert-butylphenylsulfonyl-amino)-3-phenyl-1H-pyrrolo[2,3-b]pyridine-2-carboxamide] | 0.037 | – |
| CC(C)(C)c1ccc(S(=O)(=O)Nc2cnc3[nH]c(C(=O)NCC4CCCO4)c(-c4ccccc4)c3c2)cc1 (racemic) [Example 10, (±)-N-(Tetrahydrofuran-2-ylmethyl)-5-(4-tert-butylphenylsulfonyl-amino)-3-phenyl-1H-pyrrolo[2,3-b]pyridine-2-carboxamide] | 0.064 | – |
| CC(C)(C)c1ccc(S(=O)(=O)Nc2cnc3[nH]c(C(=O)N[C@H]4CCC[C@H]4O)c(-c4ccccc4)c3c2)cc1 [Example 8, (1S,2R)—N-(2-Hydroxycyclopentyl)-5-(4-tert-butylphenylsulfonyl-amino)-3-phenyl-1H-pyrrolo[2,3-b]pyridine-2-carboxamide] | 0.013 | – |
| O=C(N[C@H]1CCC[C@H]1O)c1[nH]c2ncc(NS(=O)(=O)c3ccc(C(F)(F)F)cc3)cc2c1-c1ccccc1 [Example 22, (1S,2R)—N-(2-Hydroxycyclopentyl)-3-phenyl-5-(4-trifluoromethyl-phenylsulfonylamino)-1H-pyrrolo[2,3-b]pyridine-2-carboxamide] | 0.025 | – |
| Cc1cc2c(C(C)C)c(O)c(O)c(C=O)c2c(O)c1-c1c(C)cc2c(C(C)C)c(O)c(O)c(C=O)c2c1O [gossypol] | – | inherently toxic |
